# Laboratory results taken from patent US20150313215A1, “PESTICIDAL MIXTURES” (priority 2010, published 2015).
# How the values were obtained:
# Format in all cases: in vivo
# Phakopsora pachyrhizi = assay: Greenhouse experiments, control of soybean rust on soybean, foliar spray; settings: Halo methylene benzonorbornene amide 1 gai/ha
# Procedure: Control of Phakopsora pachyrhizi on Soybean
# Greenhouse experiments were conducted to evaluate the ability of cis-jasmone to enhance fungicidal activity of a single agrochemical active ingredient and also of a mixture of two agrochemical active ingredients. A fungicidally active ingredient, N-[(1RS,4SR)-9-(Dichloromethylidene)-1,2,3,4-tetrahydro-1,4-methanonaphthalen-5-yl]-3-(difluoromethyl)-1-methyl-1H-pyrazole-4-carboxamide (“halo methylene benzonorbornene amide”), alone or in admixture with another fungicidally active ingredient, azoxystrobin, controls soybean rust when applied as a foliar spray. See data in Table 7.
# Aphid Aphis gossypii [1] = assay: Field trial, control of aphid on cotton (Example 6); settings: 1 foliar spray, 8 evaluation dates from Day 3 to Day 29
# Procedure: (§1) Control of Aphid Aphis gossypii on Cotton
# (§2) A field trial using plots of 20 plants, 3 replicates and 1 foliar spray was assessed for number of alate and apterous aphids/plant from 8 evaluation dates from Day 3 to Day 29 after treatment. Data for untreated control are an average of four control plots (each 3 replicates; 240 total plants) which were interspersed within the treated plots.
# [2] = test system: Two Spotted Spider Mite Tetranychus urticae; assay: Field trial, control of two spotted spider mite on kidney beans; settings: 2 foliar sprays at 10 day intervals, 11 evaluation dates Day 3 to Day 35
# Procedure: Control of Two Spotted Spider Mite Tetranychus urticae on Kidney Beans
# A field trial using a plot size of 20 m^2, 3 replicates and 2 foliar sprays at 500 I/ha at 10 day intervals was assessed for average mite population/20 leaves/plot from 11 evaluation dates from Day 3 to Day 35 after treatment.
# [3] = test system: Currant-Lettuce Aphid Nasonova ribis-nigri; assay: Field trial, control of currant-lettuce aphid on lettuce (Example 2); settings: 1 foliar spray; for Average Number of Aphids per Plant: apterous aphids
# Procedure: (§3) Control of Currant-Lettuce Aphid Nasonova ribis-nigri on Lettuce
# as §2, with “of” for “of alate and”, “and number of infected plants on” for “from 8 evaluation dates from”, “4,” for “3 to”, “8, Day 11 and Day 14” for “29”
# [4] = test system: Currant-Lettuce Aphid Nasonova ribis-nigri; assay: Field trial, control of currant-lettuce aphid on lettuce (Example 3); settings: 1 foliar spray, apterous aphids
# Procedure: as §3
# A field trial using plots of 20 plants, 4 replicates and 1 foliar spray was assessed for number of apterous aphids/plant on Day 3, Day 7 and Day 10 after treatment.
# Thrips Thrips Tabaci = assay: Field trial, control of thrips on cotton; settings: for Average Number of Thrips per Plant: 1 foliar spray, adult thrips; for average number of thrips per plant observed across all days monitored: Day 1 to Day 22
# Procedure: Control of Thrips Thrips Tabaci on Cotton
# A field trial using 21 m^2 plots, 3 replicates and 1 foliar spray was assessed for number of adult thrips/plant on Day 1, Day 3, Day 5, Day 8, Day 10, Day 15, and Day 22 after treatment. Data for untreated control are an average of four control plots.
# Aphid Aphis gossypii [5] = assay: Field trial, control of aphid on cotton (Example 5); settings: for Average Number of Aphids per Plant: 1 foliar spray, apterous adults; for average number of aphids per plant observed across all days monitored: Day 1 to Day 22
# Procedure: as §1
# A field trial using 21 m^2 plots, 3 replicates and 1 foliar spray was assessed for number of apterous adults/plant on Day 1, Day 3, Day 5, Day 8, Day 10, Day 15, and Day 22 after treatment. Data for untreated control are an average of four control plots.
# [6] = Cis-jasmone 50 gai/hl, Day 4 after treatment
# [7] = Cis-jasmone 50 gai/hl, Day 8 after treatment
# [8] = Cis-jasmone 50 gai/hl, Day 11 after treatment
# [9] = Cis-jasmone 50 gai/hl, Day 14 after treatment
# [10] = Cis-jasmone 50 gai/hl, Day 1 after treatment
# [11] = Cis-jasmone 50 gai/hl, Day 3 after treatment
# [12] = Cis-jasmone 50 gai/hl, Day 5 after treatment
# [13] = Cis-jasmone 50 gai/hl, Day 10 after treatment
# [14] = Cis-jasmone 50 gai/hl, Day 15 after treatment
# [15] = Cis-jasmone 50 gai/hl, Day 22 after treatment
# [16] = Thiamethoxam 30 gai/hl, Day 4 after treatment
# [17] = Thiamethoxam 30 gai/hl, Day 8 after treatment
# [18] = Thiamethoxam 30 gai/hl, Day 11 after treatment
# [19] = Thiamethoxam 30 gai/hl, Day 14 after treatment
# [20] = Thiamethoxam 30 gai/hl, Day 1 after treatment
# [21] = Thiamethoxam 30 gai/hl, Day 3 after treatment
# [22] = Thiamethoxam 30 gai/hl, Day 5 after treatment
# [23] = Thiamethoxam 30 gai/hl, Day 10 after treatment
# [24] = Thiamethoxam 30 gai/hl, Day 15 after treatment
# [25] = Thiamethoxam 30 gai/hl, Day 22 after treatment
molecule,measurement,setting,value
"Cn1cc(C(=O)Nc2cccc3c2[C@@H]2CC[C@H]3C2=C(Cl)Cl)c(C(F)F)n1 (racemic) [Halo methylene benzonorbornene amide, N-[(1RS,4SR)-9-(Dichloromethylidene)-1,2,3,4-tetrahydro-1,4-methanonaphthalen-5-yl]-3-(difluoromethyl)-1-methyl-1H-pyrazole-4-carboxamide]",Percentage Fungicidal Activity,Phakopsora pachyrhizi,20%
"CNC(=O)c1cc(C#N)cc(C)c1NC(=O)c1cc(Br)nn1-c1ncccc1Cl [Cyantraniliprole, cyantraniliprole]","Average Number of Aphids/Plant, Alate",Aphid Aphis gossypii [1]; Cyantraniliprole 100 gai/hl,17
same,"Average Number of Aphids/Plant, Apterous",Aphid Aphis gossypii [1]; Cyantraniliprole 100 gai/hl,235
same,"Average Number of Aphids/Plant, Alate",Aphid Aphis gossypii [1]; Cyantraniliprole 200 gai/hl,16
same,"Average Number of Aphids/Plant, Apterous",Aphid Aphis gossypii [1]; Cyantraniliprole 200 gai/hl,179
"CC/C=C\CC1=C(C)CCC1=O [Cis-jasmone, cis-jasmone]",% pest control versus untreated check,"[2]; Cis-jasmone 5 gai/hl, mite population/20 leaves/plot",51.00%
same,Number of Infested Plants (out of 60),[3]; [6],21
same,Average Number of Aphids per Plant,[3]; [6],0.57
same,Number of Infested Plants (out of 60),[3]; [7],48
same,Average Number of Aphids per Plant,[3]; [7],3.28
same,Number of Infested Plants (out of 60),[3]; [8],59
same,Average Number of Aphids per Plant,[3]; [8],8.02
same,Number of Infested Plants (out of 60),[3]; [9],60
same,Average Number of Aphids per Plant,[3]; [9],19.25
same,Average Number of Aphids per Plant,"[4]; Cis-jasmone at 100 gai/hl, Day 3 after treatment",2.963
same,Average Number of Aphids per Plant,"[4]; Cis-jasmone at 100 gai/hl, Day 7 after treatment",6.563
same,Average Number of Aphids per Plant,"[4]; Cis-jasmone at 100 gai/hl, Day 10 after treatment",12.375
same,Average Number of Thrips per Plant,Thrips Thrips Tabaci; [10],24
same,average number of thrips per plant observed across all days monitored,Thrips Thrips Tabaci; Cis-jasmone 50 gai/hl,39
same,Average Number of Thrips per Plant,Thrips Thrips Tabaci; [11],19
same,Average Number of Thrips per Plant,Thrips Thrips Tabaci; [12],28
same,Average Number of Thrips per Plant,Thrips Thrips Tabaci; [7],48
same,Average Number of Thrips per Plant,Thrips Thrips Tabaci; [13],58
same,Average Number of Thrips per Plant,Thrips Thrips Tabaci; [14],65
same,Average Number of Thrips per Plant,Thrips Thrips Tabaci; [15],32
same,Average Number of Aphids per Plant,Aphid Aphis gossypii [5]; [10],40
same,average number of aphids per plant observed across all days monitored,Aphid Aphis gossypii [5]; Cis-jasmone 50 gai/hl,61
same,Average Number of Aphids per Plant,Aphid Aphis gossypii [5]; [11],33
same,Average Number of Aphids per Plant,Aphid Aphis gossypii [5]; [12],45
same,Average Number of Aphids per Plant,Aphid Aphis gossypii [5]; [7],126
same,Average Number of Aphids per Plant,Aphid Aphis gossypii [5]; [13],139
same,Average Number of Aphids per Plant,Aphid Aphis gossypii [5]; [14],27
same,Average Number of Aphids per Plant,Aphid Aphis gossypii [5]; [15],14
same,"Average Number of Aphids/Plant, Alate",Aphid Aphis gossypii [1]; Cis-Jasmone 50 gai/hl,18
same,"Average Number of Aphids/Plant, Apterous",Aphid Aphis gossypii [1]; Cis-Jasmone 50 gai/hl,260
"CN1COCN(Cc2cnc(Cl)s2)/C1=N\[N+](=O)[O-] [Thiamethoxam, thiamethoxam]",Number of Infested Plants (out of 60),[3]; [16],1
same,Average Number of Aphids per Plant,[3]; [16],0.05
same,Number of Infested Plants (out of 60),[3]; [17],3
same,Average Number of Aphids per Plant,[3]; [17],0.12
same,Number of Infested Plants (out of 60),[3]; [18],15
same,Average Number of Aphids per Plant,[3]; [18],1
same,Number of Infested Plants (out of 60),[3]; [19],22
same,Average Number of Aphids per Plant,[3]; [19],2.25
same,Average Number of Aphids per Plant,"[4]; Thiamethoxam at 25 gai/hl, Day 3 after treatment",0.063
same,Average Number of Aphids per Plant,"[4]; Thiamethoxam at 25 gai/hl, Day 7 after treatment",0.788
same,Average Number of Aphids per Plant,"[4]; Thiamethoxam at 25 gai/hl, Day 10 after treatment",4.813
same,Average Number of Thrips per Plant,Thrips Thrips Tabaci; [20],31
same,average number of thrips per plant observed across all days monitored,Thrips Thrips Tabaci; Thiamethoxam 30 gai/hl,28
same,Average Number of Thrips per Plant,Thrips Thrips Tabaci; [21],17
same,Average Number of Thrips per Plant,Thrips Thrips Tabaci; [22],27
same,Average Number of Thrips per Plant,Thrips Thrips Tabaci; [17],15
same,Average Number of Thrips per Plant,Thrips Thrips Tabaci; [23],27
same,Average Number of Thrips per Plant,Thrips Thrips Tabaci; [24],52
same,Average Number of Thrips per Plant,Thrips Thrips Tabaci; [25],29
same,Average Number of Aphids per Plant,Aphid Aphis gossypii [5]; [20],41
same,average number of aphids per plant observed across all days monitored,Aphid Aphis gossypii [5]; Thiamethoxam 30 gai/hl,25
same,Average Number of Aphids per Plant,Aphid Aphis gossypii [5]; [21],20
same,Average Number of Aphids per Plant,Aphid Aphis gossypii [5]; [22],23
same,Average Number of Aphids per Plant,Aphid Aphis gossypii [5]; [17],26
same,Average Number of Aphids per Plant,Aphid Aphis gossypii [5]; [23],33
same,Average Number of Aphids per Plant,Aphid Aphis gossypii [5]; [24],20
same,Average Number of Aphids per Plant,Aphid Aphis gossypii [5]; [25],10
abamectin,% pest control versus untreated check,[2]; Abamectin 0.45 gai/hl,41.22%
same,% pest control versus untreated check,[2]; Abamectin 0.9 g active ingredient/hl,56.56%
